Laboratory results: patent publication US20240300942A1, “SMALL MOLECULES FOR TREATEMENT OF CANCER” (VRise Therapeutics Inc., priority 2021, published 2024)

What was measured:
[1] = tested on: MIAPACA-2 cell line; experiment: In vitro cell proliferation assay (CCK-8) in MIAPACA-2 cell line; assay type: cell-based; details: Homo sapiens, MIA PaCa-2, 72 hours; for inhibition at 3 µM: TC1: Test Concentration of 3 uM; for inhibition at 10 µM: TC2: Test Concentration of 10 uM
Experimental: (§1) Growth inhibition assays is to be carried out using 10% FBS supplemented media. Cells are to be seeded at a desired concentration of 1,500-6,000 cells/well in a 96-well plate. Test compounds at a concentration range from 1 to 30 uM will be added after 24 hours. Growth will be assessed using the CCK-8 kit for measuring reduction at 0 h (prior to the addition of the test compound) and 72 hours after the addition of test compound. Absorbance read on a BIO-RAD iMark Microplate or any equivalent microplate reader at a wavelength of 450 nm. Data was analysed and percent inhibition due to the test compound compared to the control is calculated accordingly.

[2] = tested on: NCI-H358 cell line; experiment: In vitro cell proliferation assay (CCK-8) in NCI-H358 cell line; assay type: cell-based; details: Homo sapiens, 72 hours; for inhibition at 3 µM: TC1: Test Concentration of 3 uM; for inhibition at 10 µM: TC2: Test Concentration of 10 uM
Experimental: as §1

C=CC(=O)N1CCN(c2nc(N3CC(C)OC(C)C3)c(C#N)c3c2CCN(c2cccc4ccccc24)C3)CC1CC#N (racemic) [Ex 13, 1-(4-acryloyl-3-(cyanomethyl)piperazin-1-yl)-3-(2,6-dimethylmorpholino)-6-(naphthalen-1-yl)-5,6,7,8-tetrahydro-2,6-naphthyridine-4-carbonitrile]
inhibition at 3 µM [1]: 75 to 100%
inhibition at 10 µM [1]: 75 to 100%

C=CC(=O)N1CCN(c2nc(N3CC(C)OC(C)C3)c(C#N)c3c2CCN(c2cccc4ccccc24)C3)C[C@@H]1CC#N (single isomer, unassigned) [Ex 14]
inhibition at 3 µM [1]: 75 to 100%
inhibition at 10 µM [1]: 75 to 100%

C=CC(=O)N1CCN(c2nc(N3CC(C)OC(C)C3)c(C#N)c3c2CCN(c2cccc4ccccc24)C3)C[C@H]1CC#N (single isomer, unassigned) [Ex 15]
inhibition at 3 µM [1]: 75 to 100%
inhibition at 10 µM [1]: 75 to 100%

C=CC(=O)N1CCN(c2nc(N3CCS(=O)(=O)CC3)c(C#N)c3c2CCN(c2cccc4ccccc24)C3)CC1 [Ex 1, 1-(4-acryloylpiperazin-1-yl)-3-(1,1-dioxidothiomorpholino)-6-(naphthalen-1-yl)-5,6,7,8-tetrahydro-2,6-naphthyridine-4-carbonitrile]
inhibition at 10 µM [1]: 75 to 100%

C=CC(=O)N1CCN(c2nc(OC[C@@H]3CCCN3C)c(C#N)c3c2CCN(c2cccc4cccc(Cl)c24)C3)CC1 [Ex 8, (S)-1-(4-acryloylpiperazin-1-yl)-6-(8-chloronaphthalen-1-yl)-3-((1-methylpyrrolidin-2-yl)methoxy)-5,6,7,8-tetrahydro-2,6-naphthyridine-4-carbonitrile]
inhibition at 3 µM [1]: 25 to 50%
inhibition at 10 µM [1]: 75 to 100%

C=CC(=O)N1CCN(c2nc(OC[C@@H]3CCCN3C)c(C#N)c3c2CCN(c2cc(O)cc4ccccc24)C3)CC1 [Ex 9, (S)-1-(4-acryloylpiperazin-1-yl)-6-(3-hydroxynaphthalen-1-yl)-3-((1-methylpyrrolidin-2-yl)methoxy)-5,6,7,8-tetrahydro-2,6-naphthyridine-4-carbonitrile]
inhibition at 3 µM [1]: 75 to 100%
inhibition at 10 µM [1]: 75 to 100%

C=C(F)C(=O)N1CCN(c2nc(OC[C@@H]3CCCN3C)c(C#N)c3c2CCN(c2ncnc4ccccc24)C3)CC1 [Ex 10, (S)-1-(4-(2-fluoroacryloyl)piperazin-1-yl)-3-((1-methylpyrrolidin-2-yl)methoxy)-6-(quinazolin-4-yl)-5,6,7,8-tetrahydro-2,6-naphthyridine-4-carbonitrile]
inhibition at 3 µM [1]: 75 to 100%
inhibition at 10 µM [1]: 75 to 100%

C=CS(=O)(=O)N1CCN(c2nc(OC[C@@H]3CCCN3C)c(C#N)c3c2CCN(c2cccc4cccc(Cl)c24)C3)CC1 [Ex 11, (S)-6-(8-chloronaphthalen-1-yl)-3-((1-methylpyrrolidin-2-yl)methoxy)-1-(4-(vinylsulfonyl)piperazin-1-yl)-5,6,7,8-tetrahydro-2,6-naphthyridine-4-carbonitrile]
inhibition at 3 µM [1]: 75 to 100%
inhibition at 10 µM [1]: 75 to 100%

C=C(F)C(=O)N1CCN(c2nc(OC[C@@H]3CCCN3C)c(C#N)c3c2CCN(c2cccc4cccc(Cl)c24)C3)CC1C (stereo partly drawn) [Ex 12, 6-(8-chloronaphthalen-1-yl)-1-(4-(2-fluoroacryloyl)-3-methylpiperazin-1-yl)-3-(((S)-1-methylpyrrolidin-2-yl)methoxy)-5,6,7,8-tetrahydro-2,6-naphthyridine-4-carbonitrile]
inhibition at 3 µM [1]: 50 to 75%
inhibition at 10 µM [1]: 75 to 100%

C=CC(=O)N1CCN(c2nc(OC[C@@H]3CCCN3C)c(C#N)c3c2CCN(c2cccc4ccccc24)C3)C[C@@H]1CC#N [Ex 17, 1-((S)-4-acryloyl-3-(cyanomethyl)piperazin-1-yl)-3-(((S)-1-methylpyrrolidin-2-yl)methoxy)-6-(naphthalen-1-yl)-5,6,7,8-tetrahydro-2,6-naphthyridine-4-carbonitrile]
inhibition at 3 µM [1]: 75 to 100%
inhibition at 10 µM [1]: 75 to 100%

C=CC(=O)N1CCN(c2nc(OC[C@@H]3CCCN3C)c(C#N)c3c2CCN(c2cccc4ccccc24)C3)C[C@H]1CC#N [Ex 18, 1-((R)-4-acryloyl-3-(cyanomethyl)piperazin-1-yl)-3-(((S)-1-methylpyrrolidin-2-yl)methoxy)-6-(naphthalen-1-yl)-5,6,7,8-tetrahydro-2,6-naphthyridine-4-carbonitrile]
inhibition at 3 µM [1]: 75 to 100%
inhibition at 10 µM [1]: 75 to 100%

C=CC(=O)N1CCN(c2nc(OC[C@@H]3CCCN3C)c(C#N)c3c2CCN(c2cc(O)cc4ccccc24)C3)CC1CC#N (stereo partly drawn) [Ex 19, 1-(4-acryloyl-3-(cyanomethyl)piperazin-1-yl)-6-(3-hydroxynaphthalen-1-yl)-3-(((S)-1-methylpyrrolidin-2-yl)methoxy)-5,6,7,8-tetrahydro-2,6-naphthyridine-4-carbonitrile]
inhibition at 3 µM [1]: 75 to 100%
inhibition at 10 µM [1]: 75 to 100%

C=C(F)C(=O)N1CCN(c2nc(OC[C@@H]3CCCN3C)c(C#N)c3c2CCN(c2cccc4ccccc24)C3)CC1CC#N (stereo partly drawn) [Ex 20, 1-(3-(cyanomethyl)-4-(2-fluoroacryloyl)piperazin-1-yl)-3-(((S)-1-methylpyrrolidin-2-yl)methoxy)-6-(naphthalen-1-yl)-5,6,7,8-tetrahydro-2,6-naphthyridine-4-carbonitrile]
inhibition at 3 µM [1]: 50 to 75%
inhibition at 10 µM [1]: 75 to 100%

C=CC(=O)N1CCN(c2nc(OC[C@@H]3CCCN3C)c(C#N)c3c2CCN(c2cncc4ccccc24)C3)CC1 [Ex 21, (S)-1-(4-acryloylpiperazin-1-yl)-6-(isoquinolin-4-yl)-3-((1-methylpyrrolidin-2-yl)methoxy)-5,6,7,8-tetrahydro-2,6-naphthyridine-4-carbonitrile]
inhibition at 3 µM [1]: 50 to 75%
inhibition at 10 µM [1]: 50 to 75%

C=C(F)C(=O)N1CCN(c2nc(OC[C@@H]3CCCN3C)c(C#N)c3c2CCN(c2cccc4cccc(Cl)c24)C3)CC1CC#N (stereo partly drawn) [Ex 26, 6-(8-chloronaphthalen-1-yl)-1-(3-(cyanomethyl)-4-(2-fluoroacryloyl)piperazin-1-yl)-3-(((S)-1-methylpyrrolidin-2-yl)methoxy)-5,6,7,8-tetrahydro-2,6-naphthyridine-4-carbonitrile]
inhibition at 3 µM [2]: 25 to 50%
inhibition at 10 µM [2]: 75 to 100%

C=C(F)C(=O)N1CCN(c2nc(OC[C@@H]3CCCN3C)c(C#N)c3c2CCN(c2cccc4cccc(Cl)c24)C3)C[C@@H]1CC#N [Ex 27, 6-(8-chloronaphthalen-1-yl)-1-((S)-3-(cyanomethyl)-4-(2-fluoroacryloyl)piperazin-1-yl)-3-(((S)-1-methylpyrrolidin-2-yl)methoxy)-5,6,7,8-tetrahydro-2,6-naphthyridine-4-carbonitrile]
inhibition at 3 µM [2]: 50 to 75%
inhibition at 10 µM [2]: 75 to 100%

C=CC(=O)N1CCN(c2nc(N3CCN(C(=O)C=C)CC3)c3c(c2C#N)CN(Cc2ccccc2)CC3)CC1 [Ex 32, 1,3-bis(4-acryloylpiperazin-1-yl)-6-benzyl-5,6,7,8-tetrahydro-2,6-naphthyridine-4-carbonitrile]
inhibition at 10 µM [2]: 50 to 75%

C=CC(=O)Oc1nc(N2CCN(C(=O)C=C)CC2)c2c(c1C#N)CN(Cc1ccccc1)CC2 [Ex 33, 1-(4-acryloylpiperazin-1-yl)-6-benzyl-4-cyano-5,6,7,8-tetrahydro-2,6-naphthyridin-3-yl acrylate]
inhibition at 10 µM [2]: ≤ 25%

C=CC(=O)N1CCN(c2nc(N3CCOCC3)c(C#N)c3c2CCN(Cc2ccccc2)C3)CC1 [Ex 34, 1-(4-acryloylpiperazin-1-yl)-6-benzyl-3-morpholino-5,6,7,8-tetrahydro-2,6-naphthyridine-4-carbonitrile]
inhibition at 10 µM [2]: 25 to 50%

C=CC(=O)N1CCN(c2nc(N3CCN(C)CC3)c(C#N)c3c2CCN(Cc2ccccc2)C3)CC1 [Ex 35, 1-(4-acryloylpiperazin-1-yl)-6-benzyl-3-(4-methylpiperazin-1-yl)-5,6,7,8-tetrahydro-2,6-naphthyridine-4-carbonitrile]
inhibition at 10 µM [2]: 25 to 50%

C=CC(=O)N1CCN(c2nc(N3CCN(C)CC3)c(C#N)c3c2CCN(Cc2ccccc2)C3)CC1CC#N (centres unmarked) [Ex 36, 1-(4-acryloyl-3-(cyanomethyl)piperazin-1-yl)-6-benzyl-3-(4-methylpiperazin-1-yl)-5,6,7,8-tetrahydro-2,6-naphthyridine-4-carbonitrile]
inhibition at 10 µM [2]: 25 to 50%

C=CC(=O)N1CCN(c2nc(N3CCN(C)CC3)c(C#N)c3c2CCN(C(=O)c2cccc4ccccc24)C3)CC1CC#N (centres unmarked) [Ex 37, 6-(1-naphthoyl)-1-(4-acryloyl-3-(cyanomethyl)piperazin-1-yl)-3-(4-methylpiperazin-1-yl)-5,6,7,8-tetrahydro-2,6-naphthyridine-4-carbonitrile]
inhibition at 10 µM [2]: 75 to 100%

C=CC(=O)N1CCN(c2nc(N3CCN(C)CC3)c(C#N)c3c2CCN(Cc2ccccc2)C3)[C@@H](C)C1 [Ex 38, (S)-1-(4-acryloyl-2-methylpiperazin-1-yl)-6-benzyl-3-(4-methylpiperazin-1-yl)-5,6,7,8-tetrahydro-2,6-naphthyridine-4-carbonitrile]
inhibition at 10 µM [2]: ≤ 25%

C=CC(=O)N1CCN(c2nc(N3CCN(C)CC3)c(C#N)c3c2CCN(Cc2ccccc2)C3)[C@H](C)C1 [Ex 39, (R)-1-(4-acryloyl-2-methylpiperazin-1-yl)-6-benzyl-3-(4-methylpiperazin-1-yl)-5,6,7,8-tetrahydro-2,6-naphthyridine-4-carbonitrile]
inhibition at 10 µM [2]: 25 to 50%

C=CC(=O)N1CCN(c2nc(O)c(C#N)c3c2CCN(Cc2ccccc2)C3)CC1 [Ex 40, 1-(4-acryloylpiperazin-1-yl)-6-benzyl-3-hydroxy-5,6,7,8-tetrahydro-2,6-naphthyridine-4-carbonitrile]
inhibition at 10 µM [2]: ≤ 25%

C=CC(=O)N1CCN(c2nc(N3CCN(C)CC3)c(C#N)c3c2CCN(c2cccc4ccccc24)C3)CC1 [Ex 41, 1-(4-acryloylpiperazin-1-yl)-3-(4-methylpiperazin-1-yl)-6-(naphthalen-1-yl)-5,6,7,8-tetrahydro-2,6-naphthyridine-4-carbonitrile]
inhibition at 10 µM [2]: 25 to 50%
